Our source for the IC50 values is patent publication US20240409585A1, “MACROCYCLIC IMMUNOMODULATORS” (priority 2021, published 2024).

For orientation: IC50 means the midpoint of a concentration-inhibition curve.

SMILES strings stand for the structures. Bridge positions count the residues as written; N and C are the ends. Square brackets hold non-standard residues; d marks the D form. Peptide text beside a SMILES is read from it. * marks the point of attachment. ξ: configuration not given here. Bip(3'-COOH) = N[C@@H](Cc1ccc(-c2cccc(C(=O)O)c2)cc1)C(=O)O; Phe(4-COOH) = N[C@@H](Cc1ccc(C(=O)O)cc1)C(=O)O; Bip = N[C@@H](Cc1ccc(-c2ccccc2)cc1)C(=O)O; Phe(3-CN) = N#Cc1cccc(C[C@H](N)C(=O)O)c1; Phe(3-Me) = Cc1cccc(C[C@H](N)C(=O)O)c1; dBta = N[C@H](Cc1csc2ccccc12)C(=O)O; Val(3-OH) = CC(C)(O)[C@H](N)C(=O)O; 4Pal = N[C@@H](Cc1ccncc1)C(=O)O; Cha = N[C@@H](CC1CCCCC1)C(=O)O; Cit = NC(=O)NCCC[C@H](N)C(=O)O; Ile(3ξ) = CCC(C)[C@H](N)C(=O)O; Thr(3ξ) = CC(O)[C@H](N)C(=O)O; ξCha = NC(CC1CCCCC1)C(=O)O; dDab = NCC[C@@H](N)C(=O)O; Carboxymethyl = O=C(O)C*; NMeA = CN[C@@H](C)C(=O)O; Orn = NCCC[C@H](N)C(=O)O; Pra = C#CC[C@H](N)C(=O)O; Dab = NCC[C@H](N)C(=O)O; Dap = NC[C@H](N)C(=O)O

The target of this test is T1, PE-labeled human PD-L1-Ig binding to Jurkat cell line over-expressing human PD-1 (Jurkat-PD-1) (Homo sapiens, UniProt Q15116).
T1 construct: expressed in transfected cells; host or cells: Jurkat
T1 sequence (Q15116 25-288): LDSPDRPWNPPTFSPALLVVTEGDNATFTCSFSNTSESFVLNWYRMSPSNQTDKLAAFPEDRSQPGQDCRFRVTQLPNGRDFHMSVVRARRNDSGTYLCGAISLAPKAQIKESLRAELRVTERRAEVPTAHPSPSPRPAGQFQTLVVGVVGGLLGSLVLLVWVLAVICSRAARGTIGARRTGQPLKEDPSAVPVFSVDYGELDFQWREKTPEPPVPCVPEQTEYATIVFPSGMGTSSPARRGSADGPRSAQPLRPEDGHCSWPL
The test can be described thus: Jurkat-PD-1 Cell Binding High-Content Screening Assay (CBA): Method 1. Particulars: Jurkat-hPD-1 cells, PE-labeled PD-L1-Ig 20 nM final; read-out: Jurkat HPDL1 PD1 IC50 (uM) (Method 1).

With `Cc1cccc(C[C@@H]2NC(=O)[C@H](CC(=O)O)NC(=O)[C@H](Cc3ccc(OCC(=O)O)cc3)NC(=O)[C@H]([C@@H](C)O)NC(=O)CSC[C@@H](C(N)=O)NC(=O)[C@H]([C@@H](C)O)NC(=O)[C@H](C(C)C)NC(=O)[C@H](CC3CCCCC3)NC(=O)[C@H](CC(N)=O)NC(=O)[C@@H](CC(C)C)NC(=O)[C@H](C)N(C)C(=O)[C@H](Cc3ccc(OCC(=O)O)cc3)NC(=O)[C@H](Cc3ccc(-c4ccccc4)cc3)NC(=O)[C@H](Cc3ccc(OCC(=O)O)cc3)NC2=O)c1` [Compound 1678] ({CH2CO}-TY(Carboxymethyl)D[Phe(3-Me)]Y(Carboxymethyl)[Bip]Y(Carboxymethyl)[NMeA][dL]N[Cha]VTC-NH2; thioether N-14), the half-maximal inhibitory concentration (IC50) amounted to 0.15 µM.

Regarding `CC(C)C[C@@H]1NC(=O)[C@H](Cc2c[nH]c3ccccc23)NC(=O)[C@H](CC(=O)O)NC(=O)[C@H](Cc2ccc(O)cc2)NC(=O)[C@H](Cc2ccccc2)NC(=O)CSC[C@@H](C(=O)NCC(N)=O)NC(=O)[C@H](CO)NC(=O)[C@H](C(C)C)NC(=O)[C@H](CC(C)C)NC(=O)[C@H](CC(N)=O)NC(=O)[C@H](CCC(N)=O)NC(=O)[C@H](C)N(C)C(=O)[C@H](C(C)C)NC(=O)[C@H](Cc2ccc(-c3ccccc3)cc2)NC1=O` [Compound 1811] ({CH2CO}-FYDWL[Bip]V[NMeA]QNLVSCG-NH2; thioether N-14), the IC50 turned out to be 0.28 µM.

Take `CC(C)C[C@@H]1NC(=O)[C@H](CCN)NC(=O)[C@@H](CC(C)C)NC(=O)[C@H](C)N(C)C(=O)[C@H](CCCNC(N)=O)NC(=O)[C@H](Cc2ccc(-c3ccccc3)cc2)NC(=O)[C@H](C(C)C)NC(=O)[C@H](Cc2c[nH]c3ccccc23)NC(=O)[C@H](CC(=O)O)NC(=O)[C@H](Cc2ccc(O)cc2)NC(=O)[C@H](CN)NC(=O)CSC[C@@H](C(=O)N[C@@H](C)C(N)=O)NC(=O)[C@H]([C@@H](C)O)NC(=O)[C@H](C(C)C)NC1=O` [Compound 1345] ({CH2CO}-[Dap]YDWV[Bip][Cit][NMeA][dL][Dab]LVTCA-NH2; thioether N-14): the 50% inhibitory concentration (IC50) was found to be 0.01 µM.

`Cc1cccc(C[C@@H]2NC(=O)[C@H](CC(=O)O)NC(=O)[C@H](Cc3ccc(OCC(=O)O)cc3)NC(=O)[C@H](Cc3ccc(OCC(=O)O)cc3)NC(=O)CSC[C@@H](C(=O)N[C@@H](CCN)C(N)=O)NC(=O)[C@@H](CCN)NC(=O)[C@H](C(C)C)NC(=O)[C@H](CC3CCCCC3)NC(=O)[C@H](CCN)NC(=O)[C@@H](CC(C)C)NC(=O)[C@H](C)N(C)C(=O)[C@H](Cc3ccc(O)cc3)NC(=O)[C@H](Cc3ccc(-c4ccccc4)cc3)NC(=O)[C@H](Cc3ccc(O)cc3)NC2=O)c1` [Compound 1872] ({CH2CO}-Y(Carboxymethyl)Y(Carboxymethyl)D[Phe(3-Me)]Y[Bip]Y[NMeA][dL][Dab][Cha]V[dDab]C[Dab]-NH2; thioether N-14): the concentration for half-maximal inhibition (IC50) turned out to be 0.02 µM.

`CC[C@H](C)[C@@H]1NC(=O)[C@H](Cc2ccc(-c3ccccc3)cc2)NC(=O)[C@H](C(C)C)NC(=O)[C@H](Cc2c[nH]c3ccccc23)NC(=O)[C@H](CC(=O)O)NC(=O)[C@H](Cc2cccc(C#N)c2)NC(=O)[C@H](Cc2ccncc2)NC(=O)CSC[C@@H](C(=O)N[C@@H](C)C(N)=O)NC(=O)[C@H]([C@@H](C)O)NC(=O)[C@H](C(C)C)NC(=O)[C@H](CC(C)C)NC(=O)[C@H](CCN)NC(=O)[C@@H](CC(C)C)NC(=O)[C@H](C)N(C)C1=O` [Compound 1407] ({CH2CO}-[4Pal][Phe(3-CN)]DWV[Bip]I[NMeA][dL][Dab]LVTCA-NH2; thioether N-14): the half-inhibitory concentration (IC50) worked out at 0.04 µM.

For the molecule `CC(C)C[C@@H]1NC(=O)[C@H](CCCNC(=N)N)NC(=O)[C@@H](Cc2csc3ccccc23)NC(=O)[C@H](C)N(C)C(=O)[C@H](CCCNC(=N)N)NC(=O)[C@H](Cc2ccc(-c3ccccc3)cc2)NC(=O)[C@H](C(C)C)NC(=O)[C@H](Cc2c[nH]c3ccccc23)NC(=O)[C@H](CC(=O)O)NC(=O)[C@H](Cc2ccc(O)cc2)NC(=O)[C@H](Cc2ccccc2)NC(=O)CSC[C@@H](C(=O)N[C@@H](C)C(N)=O)NC(=O)[C@H]([C@@H](C)O)NC(=O)[C@H](C(C)C)NC1=O` [Compound 1180] ({CH2CO}-FYDWV[Bip]R[NMeA][dBta]RLVTCA-NH2; thioether N-14), the IC50 was found to be 0.51 µM.

Take `Cc1cccc(C[C@@H]2NC(=O)[C@H](CC(=O)O)NC(=O)[C@H](Cc3ccc(OCC(=O)O)cc3)NC(=O)[C@H]([C@@H](C)O)NC(=O)CSC[C@@H](C(N)=O)NC(=O)[C@H](CCC(=O)O)NC(=O)[C@H](C(C)C)NC(=O)[C@H](CC3CCCCC3)NC(=O)[C@H](CCN)NC(=O)[C@@H](CC(C)C)NC(=O)[C@H](C)N(C)C(=O)[C@H](Cc3ccc(OCC(=O)O)cc3)NC(=O)[C@H](Cc3ccc(-c4ccccc4)cc3)NC(=O)[C@H](Cc3ccc(OCC(=O)O)cc3)NC2=O)c1` [Compound 1673] ({CH2CO}-TY(Carboxymethyl)D[Phe(3-Me)]Y(Carboxymethyl)[Bip]Y(Carboxymethyl)[NMeA][dL][Dab][Cha]VEC-NH2; thioether N-14): the IC50 was 0.09 µM.

On to `CC(C)C[C@@H]1NC(=O)[C@H](CCN)NC(=O)[C@@H](CC(C)C)NC(=O)[C@H](C)N(C)C(=O)[C@H](CCCN)NC(=O)[C@H](Cc2ccc(-c3ccccc3)cc2)NC(=O)[C@H](C(C)C)NC(=O)[C@H](Cc2c[nH]c3ccccc23)NC(=O)[C@H](CC(=O)O)NC(=O)[C@H](Cc2ccc(O)cc2)NC(=O)[C@H](CC(N)=O)NC(=O)CSC[C@@H](C(=O)N[C@@H](C)C(N)=O)NC(=O)[C@H]([C@@H](C)O)NC(=O)[C@H](C(C)C)NC1=O` [Compound 1266] ({CH2CO}-NYDWV[Bip][Orn][NMeA][dL][Dab]LVTCA-NH2; thioether N-14), for which the 50% inhibitory concentration (IC50) came out at 0.03 µM.

On to `CC(C)C[C@@H]1NC(=O)[C@H](CCCCN)NC(=O)[C@@H](CC(C)C)NC(=O)[C@H](C)N(C)C(=O)[C@H](CCCNC(N)=O)NC(=O)[C@H](Cc2ccc(-c3ccccc3)cc2)NC(=O)[C@H](C(C)C)NC(=O)[C@H](Cc2c[nH]c3ccccc23)NC(=O)[C@H](CC(=O)O)NC(=O)[C@H](Cc2ccc(O)cc2)NC(=O)[C@H](CC(N)=O)NC(=O)CSC[C@@H](C(=O)NCC(N)=O)NC(=O)[C@H](CO)NC(=O)[C@H](C(C)C)NC1=O` [Compound 1474] ({CH2CO}-NYDWV[Bip][Cit][NMeA][dL]KLVSCG-NH2; thioether N-14), for which the 50% inhibitory concentration (IC50) was determined as 0.08 µM.

Consider `CC[C@H](C)[C@@H]1NC(=O)[C@H](Cc2ccc(-c3ccccc3)cc2)NC(=O)[C@H](C(C)(C)O)NC(=O)[C@H](Cc2cccc(C)c2)NC(=O)[C@H](CC(=O)O)NC(=O)[C@H](Cc2ccc(O)cc2)NC(=O)[C@H](CC(N)=O)NC(=O)CSC[C@@H](C(=O)N[C@@H](CCN)C(N)=O)NC(=O)[C@H]([C@@H](C)O)NC(=O)[C@H](C(C)(C)O)NC(=O)[C@H](CC2CCCCC2)NC(=O)[C@H](CCN)NC(=O)[C@@H](CC(C)C)NC(=O)[C@H](C)N(C)C1=O` [Compound 1693] ({CH2CO}-NYD[Phe(3-Me)][Val(3-OH)][Bip]I[NMeA][dL][Dab][Cha][Val(3-OH)]TC[Dab]-NH2; thioether N-14), for which the 50% inhibitory concentration (IC50) was 0.02 µM.

`CCC(C)[C@@H]1NC(=O)[C@H](Cc2ccc(-c3ccccc3)cc2)NC(=O)[C@H](C(C)C)NC(=O)[C@H](Cc2c[nH]c3ccccc23)NC(=O)[C@H](CC(N)=O)NC(=O)[C@H](Cc2ccc(-c3cccc(C(=O)O)c3)cc2)NC(=O)[C@H](Cc2ccncc2)NC(=O)CSC[C@@H](C(=O)N[C@@H](C)C(=O)N[C@@H](CCCCN)C(N)=O)NC(=O)[C@H](C(C)O)NC(=O)[C@H](C(C)C)NC(=O)C(CC2CCCCC2)NC(=O)[C@H](CC(N)=O)NC(=O)[C@@H](CC(C)C)NC(=O)[C@H](C)N(C)C1=O` (stereo partly drawn) [Compound 2019] ({CH2CO}-[4Pal][Bip(3'-COOH)]NWV[Bip][Ile(3ξ)][NMeA][dL]N[ξCha]V[Thr(3ξ)]CAK-NH2; thioether N-14): the IC50 is 0.28 µM.

In the case of `CC(C)C[C@@H]1NC(=O)[C@H](CCN)NC(=O)[C@@H](CC(C)C)NC(=O)[C@H](C)N(C)C(=O)[C@H](CCCN)NC(=O)[C@H](Cc2ccc(-c3ccccc3)cc2)NC(=O)[C@H](C(C)C)NC(=O)[C@H](Cc2c[nH]c3ccccc23)NC(=O)[C@H](CC(=O)O)NC(=O)[C@H](Cc2ccc(O)cc2)NC(=O)[C@H](Cc2cnc[nH]2)NC(=O)CSC[C@@H](C(=O)N[C@@H](C)C(N)=O)NC(=O)[C@H]([C@@H](C)O)NC(=O)[C@H](C(C)C)NC1=O` [Compound 1362] ({CH2CO}-HYDWV[Bip][Orn][NMeA][dL][Dab]LVTCA-NH2; thioether N-14), the IC50 is 0.03 µM.

Regarding `Cc1cccc(C[C@@H]2NC(=O)[C@H](CC(N)=O)NC(=O)CSC[C@@H](C(=O)N[C@@H](C)C(N)=O)NC(=O)[C@H]([C@@H](C)O)NC(=O)[C@H](C(C)C)NC(=O)[C@H](CC(C)C)NC(=O)[C@H](CCN)NC(=O)[C@@H](CC(C)C)NC(=O)[C@H](C)N(C)C(=O)[C@H](CCCNC(=N)N)NC(=O)[C@H](Cc3ccc(-c4ccccc4)cc3)NC(=O)[C@H](C(C)C)NC(=O)[C@H](Cc3c[nH]c4ccccc34)NC(=O)[C@H](CC(=O)O)NC2=O)c1` [Compound 1305] ({CH2CO}-N[Phe(3-Me)]DWV[Bip]R[NMeA][dL][Dab]LVTCA-NH2; thioether N-14), the IC50 worked out at 0.2 µM.

In the case of `C#CC[C@H](NC(=O)[C@@H](C)NC(=O)[C@@H]1CSCC(=O)N[C@@H]([C@@H](C)O)C(=O)N[C@@H](Cc2ccc(C(=O)O)cc2)C(=O)N[C@@H](CC(=O)O)C(=O)N[C@@H](Cc2cccc(C)c2)C(=O)N[C@@H](Cc2ccc(C(=O)O)cc2)C(=O)N[C@@H](Cc2ccc(-c3ccccc3)cc2)C(=O)N[C@@H](Cc2ccc(OCC(=O)O)cc2)C(=O)N(C)[C@@H](C)C(=O)N[C@H](CC(C)C)C(=O)N[C@@H](CCN)C(=O)N[C@@H](CC2CCCCC2)C(=O)N[C@@H](C(C)(C)O)C(=O)N[C@@H](CCC(=O)O)C(=O)N1)C(N)=O` [Compound 1947] ({CH2CO}-T[Phe(4-COOH)]D[Phe(3-Me)][Phe(4-COOH)][Bip]Y(Carboxymethyl)[NMeA][dL][Dab][Cha][Val(3-OH)]EC[dA][Pra]-NH2; thioether N-14), the IC50 is 0.43 µM.
